In a melting point compilation (Tetko et al.; mined from patent text by program, amines drawn as free bases though some values may be those of a salt):

SMILES | melting point [°C]
CC(C)(C)OC(=O)N1C[C@@H](S)C[C@@H]1CN(C(=O)OC(C)(C)C)S(N)(=O)=O | 90 to 91.5
C=C1C2=C(CCCC2)C(=O)N1c1ccc(Cl)cc1F | 84 to 85.5
O=C(O)c1cn(C2CC2F)c2c(F)c(F)c(F)cc2c1=O (configuration not stated) | 232 to 235
CC(Oc1ccccc1C(C)C)C(=O)OC1CC(O)C=C2C=CC(C)C(CCC3CC(O)CC(=O)O3)C21 (mixture of isomers) | 138 to 141
COc1cc(C)cc(-c2n[nH]cc2-c2ccnc(SC)n2)c1 | 143
COc1ccc(-c2nc(-c3ccc4c(c3)N(C)C(=O)CS4)cs2)cc1OC | 144
Cc1cc(-c2cc(C(F)(F)F)n3ncc(C(=O)Nc4cccc(S(=O)(=O)NC5CC5)c4)c3n2)ccc1Cl | 244
COC(=O)C1CCC2C3CCC4CC(=O)CCC4(C)C3C(NC3CCCCC3)CC12C (configuration not stated) | 93 to 94
COc1ccc(C(=O)N2c3ccccc3C(n3c4ccccc4c4ccccc43)CC2COCc2ccccc2)cc1OC (configuration not stated) | 203 to 204
CC(=O)N(c1ccc(O)cc1)N1CCCCC1 | 217 to 218
CC1=Nc2c(C)nn(C)c2C2=NCC(C)(C)N12 | 280 to 283
CCCCCC(C)N(Cc1ccnc2ccccc12)C(Nc1ccc(OC)cc1OC)=C1C(=O)OC(C)(C)OC1=O (configuration not stated) | 197 to 202
O=S(=O)(c1ccccc1)N1CCCC1c1cccc(F)c1 (racemic) | 96
N#Cc1ccc(OCCCCCCOc2ccc(-c3cc4ccc(C#N)cc4o3)cc2)cc1 | 159 to 160
COC(=O)c1ccc(N(N)C(=O)c2ccc(Cl)c(S(N)(=O)=O)c2)c([N+](=O)[O-])c1 | 144 to 147
CCCC1CC(NCC)=C(c2cccc(C(F)(F)F)c2)C1=O (configuration not stated) | 120
CC(=O)C(O)C1OC(Sc2ncc(Cl)cn2)C(O)(C(C)=O)C(O)(C(C)=O)C1(O)C(C)=O (configuration not stated) | 172
COC(=O)CCCNC(=O)C(COS(C)(=O)=O)NS(=O)(=O)c1ccc(Cl)cc1 (racemic) | 95 to 99
Nc1c(-c2ccc(Cl)cc2)nc2ccc(Cl)cc2c1C(=O)O | 240 to 241
O=c1ccc(Oc2ccc3c(c2)CCC2(CCNCC2)O3)n[nH]1 | 233 to 235
O=C(O)CCCC1=C(n2nc(-c3c(-c4ccccc4)nn4ccccc34)ccc2=O)CCCC1 | 145 to 147
Cc1cc2c(c3c1NC(=O)C(C)(C)C3)OC(C)(CBr)C2 (configuration not stated) | 158 to 160
O=C(Nc1ccccc1)Nc1nc(C(O)CO)cs1 (configuration not stated) | 175 to 178

SMILES | melting point [°C]
Brc1cc(Br)c(OC2C=CCC2)c(I)c1 (configuration not stated) | 57 to 58
CCCNC(=O)c1ccc2c(c1)N(C(C)CN1CCCC1)c1ccccc1S2 (racemic) | 75 to 80
Cc1cnc2n1-c1cc(Cl)c(Cl)cc1N=C(c1ccc(-n3c(C)nnc3C)cc1)C2 | 165
CC(C)(C)OCCCNC(=O)c1nn(C2CCCCO2)cc1NC(=O)c1ccccn1 (configuration not stated) | 101 to 103
COc1ccccc1NC(=O)Nc1nc(N2CCCCC2)nc(N(CCC(=O)O)Cc2ccc(Cl)c(Cl)c2)n1 | 111 to 115
O=c1[nH]c2cc(Cl)c(S(=O)CCN3CCC(Cc4ccccc4)CC3)cc2o1 (configuration not stated) | 190 to 192
O=c1nc(-c2cccc(Br)c2)sc2ccccc12 | 162
Cc1cc(C)c2cccc(OCc3c(Cl)ccc(S(=O)(=O)N4CCC[C@H]4C(=O)N4CCN(C(=O)c5ccc(C=NN)cn5)CC4)c3Cl)c2n1 | 150 to 155
Cc1cc(C)c(CN2CCN(C)CC2)c(C)c1C=O | 90
COc1cc2c(cc1OC)CN(CCCSc1ccc(NC(=O)c3cccc4c(=O)c5cccc(OC)c5[nH]c34)cc1)CC2 | 199
CCOCCOc1c(C)cc(Oc2ccc3c(c2)C=C(C(=O)Nc2ccc(CN(C)C4CCOCC4)cc2)CCS3(=O)=O)cc1C | 111 to 113
CCn1c(C)c(C2(c3c(-c4ccccc4)c(-c4ccccc4)c4ccccn34)OC(=O)c3cccnc32)c2ccccc21 (configuration not stated) | 206 to 208
CCOC(=O)CC(=O)c1ccc(OCc2ccccc2)cc1C | 59 to 60
CC1=C(C(=O)OC(CN2CCCCC2)c2ccccc2)C(c2cccc([N+](=O)[O-])c2)n2ccnc2N1 (configuration not stated) | 205 to 206
CCCCc1nc2c(N)nc3ccc(OCCC4CCN(C(=O)C5CCCC5)CC4)cc3c2n1C | 147 to 150
COc1ccc(C2CCN(C(=O)Nc3ccc4cc(CN5CCCC5)ccc4c3)CC2)cc1 | 194 to 196
CC(C)N1C(=O)c2ccccc2Oc2ccccc21 | 102 to 103
COc1ccc(C2(C(C)(C)O)CCN(C)CC2)cc1 | 114 to 115
CCOC(=O)C(C)(C)NC(=O)c1nnc2ccc(Cl)nn12 | 132 to 133
NC(=O)N1CCC(c2nn(-c3ccc(F)cc3)c3ccccc23)CC1 | 145 to 147
CO/C=C(/C(=O)OC)n1cccc1 | 88 to 89
O=C(CN1CCN(C(=O)Nc2ccc(C(F)(F)F)cc2)CC1)N1CCC2(CC1)Cn1cc([N+](=O)[O-])nc1O2 | 153 to 155
CCOCc1cc2cc(Cl)ccc2oc1=Nc1ccc(OC)cc1 | 136 to 138

SMILES | melting point [°C]
CCOC(=O)C1=COc2ccc(OC(C)=O)cc2O1 | 66
CNc1c(F)cc2c(=O)c(C(=O)O)cn(-c3ccc(F)c(N)c3)c2c1Cl | 162 to 166
Sc1nc2cc3ccccc3cc2o1 | 101 to 102
O=C(O)c1cn(C2COC2)c2c(F)c(F)c(F)c(O)c2c1=O | 242 to 244
CN1CC=C(c2c[nH]c3ccc(Sc4ccccc4)cc23)CC1 | 225 to 228
CSc1ccc(COc2c(C)c(C)c3c(c2C)C(c2ccc(C(C)C)cc2)C(C)(C)O3)cc1 (configuration not stated) | 118 to 120
CCn1c2ccccc2c2cc(NC(C)=O)ccc21 | 195 to 197
CCOC(=O)CCc1ccccc1CNC(=O)C1Cc2ccccc2N1S(=O)(=O)c1ccc(-c2cccc(C(F)(F)F)c2)cc1 (configuration not stated) | 48
O=c1c(Cl)c(Cl)cnn1-c1cc(C(F)(F)F)cc(C(F)(F)F)c1 | 255 to 262
CC(C)(O)C(O)(C(F)(F)F)C(F)(F)F | 48
CC(C)(C)c1cc(NC(=O)NNC(=O)c2ccc([N+](=O)[O-])cc2)cc(C(C)(C)C)c1O | 163 to 164
O=C(CCCCCBr)c1ccccc1 | 35 to 36
Cc1noc(C)c1-c1ccc(C[C@H](NC(=O)c2c(Cl)cccc2Cl)C(=O)O)cc1 | 152
c1ccc(C(C2=NCCN2)c2ccccn2)cc1 (configuration not stated) | 134 to 136
CCCCN(Cc1ccc(-c2ccccc2-c2nnn[nH]2)cc1)c1nc(C)ccc1C(=O)O | 175 to 177
CC(C)N(C(=O)c1ccc(N)cc1)C(C)C | 170
COC(=O)CCc1c(Cc2ccccc2C(F)(F)F)sc2c1c(=O)n(C)c(=O)n2CC(C)C | 86 to 88
O=C1NCCN1Cc1ccc2c(Br)cccc2c1 | 158 to 161
CCOC(=O)c1cn(C)c2c(OCC)csc2c1=O | 198 to 200
O=C(c1ccccc1)c1c(O)c2cc(Cl)cc(Cl)c2[nH]c1=O | 258 to 259
O=c1cc(N2CCOCC2)cc(-c2ccc(Cl)cc2)o1 | 236 to 237
